Assay results: patent US20260273028A1, “PEROXIDASE COMPOSITIONS CONTAINING IMPROVED ENHANCING AGENTS” (FLEN HEALTH PHARMA NV, priority 2022, published 2026)

How the values were obtained:
[1] = tested on: Candida albicans ATCC®10231™; assay: Absolute microbial counts in function of enzyme solution concentration; format: cell-based; settings: enhancer 0.01%; 0.005%-0.0000391% (v/v) GOX+LPO
IL-6 = assay: Direct neutralization of secreted IL-6 in cell culture supernatants, ELISA; format: biochemical; settings: isoleucine 0.05%; 3 h
Experimental: (§1) First, the effect on the secretion of these mediators by macrophages was evaluated. Secondly, the direct neutralization of already secreted mediators was evaluated. Both were measured by the state-of-the-art ELISA technique. Secondly, the direct neutralization of secreted pro-inflammatory mediator representatives IL-6, TNFa and MMP9 was measured in parallel. In brief, cell culture supernatants were collected after 48 h of macrophage differentiation and were centrifuged at 150 g for 5 min to remove cell debris. […] Treated supernatants were kept frozen until being processed for ELISA. IL-6, TNFa and MMP9 ELISA kits were purchased from BioTechne and the experiment was performed according to manufacturer's instructions. Briefly, 96-well plates were coated with capture antibodies overnight at room temperature. […] After several washing steps, the corresponding detection antibody, which is coupled to biotin, was incubated for 2 h. […] The reaction was stopped by the addition of sulphuric acid and absorbance at 450 nm was read with a plate reader. Absorbance is proportional to the concentration of analyte present in the medium, which was calculated based on a standard curve realized with recombinant IL-6, TNFa and MMP9.

MMP9 = assay: Direct neutralization of secreted MMP9 in cell culture supernatants, ELISA; format: biochemical; settings: isoleucine 0.05%; 3 h
Experimental: as §1

[2] = tested on: Candida albicans ATCC®10231™; assay: MBC determination, broth microdilution with CFU enumeration; format: cell-based; settings: C. albicans; enhancer 0.01%
[3] = tested on: Staphylococcus aureus ATCC® 6538™; assay: as above; format: cell-based; settings: S. aureus
Lactoperoxidase = Lactoperoxidase (Bos taurus, UniProt P80025); assay: Lactoperoxidase (LPO) activity, spectrophotometric assay (ABTS); format: biochemical
Experimental: Lactoperoxidase is a member of the heme peroxidase family of enzymes that, together with a catalytic anion (such as I^−, derived from KI, present in the substrate), will catalyse the oxidation of H2O2, leading to hypojodite (IO^−). This hypojodite is a reactive oxygen species (ROS). To measure the enzymatic activity of LPO, a standard spectrophotometric assay is performed. In brief, H2O2 combined with 2,2′-azino-bis (3-ethylbenzothiazoline-6-sulfonzuur (ABTS) is catalysed by LPO so that the formation of a coloured compound is achieved that can in turn be measured by spectrophotometry. LPO was tested in 3 different concentrations, i.e., 50, 10 and 1 mg/ml. Each reaction mixture was tested in duplo. In the event LPO activity was evaluated in the presence of a potentiator candidate (=a molecule that might be able to augment the enzymatic activity of LPO), the latter was added in a low and high concentration ranging from 100 to 0.1 mg/ml. The blank consisted of the reaction mix in which H2O2 was absent. The absorbance was immediately measured with a plate reader (Spectramax ID3, Molecular Devices) every 12 seconds for 5 minutes at 20° C. For each combination evaluated, this test was repeated at least 2 times. Results were further analysed in MS Excel and expressed as U/g. Mean blank-corrected data±SD were plotted. Statistical significance compared to the combination without potentiator candidate (reference) was calculated using students' t-tests. Significance is achieved when the obtained p-value is lower than 0,05. Significance levels were defined as p<0.05=*; p<0.01=** and p<0.001=***.

Q: Which results are given for CC[C@H](C)[C@H](N)C(=O)O [Isoleucine, isoleucine]?
A: reduction in absolute C. albicans counts compared to reference and guaiacol solution [1]: stronger reduction; additional decrease of already secreted IL-6 (direct neutralization) vs GOX+LPO (1:1) alone (IL-6): 29.4%; additional decrease of already secreted MMP9 (direct neutralization) vs GOX+LPO (1:1) alone (MMP9): 27.1%; MBC: GOX+LPO enzyme solution needed [2]: 0.0000391 % (v/v); increase in MBC compared to reference [2]: 4 ×; increase in MBC compared to the enhancing molecule guaiacol [2]: 2 ×; MBC: GOX+LPO enzyme solution needed ([3]; enhancer 0.00125%): 0.0000391 % (v/v); increase in MBC compared to reference ([3]; enhancer 0.00125%): 4 ×; increase in MBC compared to the enhancing molecule guaiacol ([3]; enhancer 0.00125%): 2 ×; MBC: GOX+LPO enzyme solution needed ([3]; enhancer 0.005%): 0.0000391 % (v/v); increase in MBC compared to reference ([3]; enhancer 0.005%): 4 ×; increase in MBC compared to the enhancing molecule guaiacol ([3]; enhancer 0.005%): 2 ×

Q: Which “LPO activity compared to reference” value (Lactoperoxidase; enhancer 0.1 mg/ml) does the source give for NC(=O)CC[C@H](N)C(=O)O [Glutamine, glutamine] here?
A: The value was “significant increase”.

Q: What about the “LPO activity compared to reference” value (Lactoperoxidase; enhancer 1 mg/ml) of the same compound?
A: The value was “significant increase”.

Q: What about the “MBC: GOX+LPO enzyme solution needed” value ([3]; enhancer 0.1%) of the same compound?
A: Its value is 0.0000391 % (v/v).

Q: And the “increase in MBC compared to reference” value ([3]; enhancer 0.1%)?
A: Its value is 4 ×.

Q: And the “increase in MBC compared to the enhancing molecule guaiacol” value ([3]; enhancer 0.1%)?
A: Its value is 2 ×.

Q: Which results are given for C[C@@H](O)[C@H](N)C(=O)O [Threonine, threonine]?
A: LPO activity compared to reference (Lactoperoxidase; enhancer 0.1 mg/ml): significant increase; LPO activity compared to reference (Lactoperoxidase; enhancer 1 mg/ml): significant increase

Q: What does the source list for N[C@@H](CO)C(=O)O [Serine, serine]?
A: reduction in absolute C. albicans counts compared to reference and guaiacol solution [1]: stronger reduction; LPO activity compared to reference (Lactoperoxidase; enhancer 100 mg/ml, reference = no potentiator candidate): significant increase; MBC: GOX+LPO enzyme solution needed [2]: 0.0000391 % (v/v); increase in MBC compared to reference [2]: 4 ×; increase in MBC compared to the enhancing molecule guaiacol [2]: 2 ×; MBC: GOX+LPO enzyme solution needed ([3]; enhancer 0.0025%-0.00125%): 0.0000391 % (v/v); increase in MBC compared to reference ([3]; enhancer 0.0025%-0.00125%): 4 ×; increase in MBC compared to the enhancing molecule guaiacol ([3]; enhancer 0.0025%-0.00125%): 2 ×; MBC: GOX+LPO enzyme solution needed ([3]; enhancer 10%-0.005%): 0.0000391 % (v/v); increase in MBC compared to reference ([3]; enhancer 10%-0.005%): 4 ×; increase in MBC compared to the enhancing molecule guaiacol ([3]; enhancer 10%-0.005%): 2 ×

Q: Which “LPO activity compared to reference” value (Lactoperoxidase; enhancer 0.1 mg/ml) does the source give for NC(=O)C[C@H](N)C(=O)O [Asparagine, asparagine] here?
A: Its value is “significant increase”.

Q: And the “LPO activity compared to reference” value (Lactoperoxidase; enhancer 1 mg/ml)?
A: Its value is “significant increase”.
